Experiments:
Rattus norvegicus = test: Anti-allodynic activity in complete freund's adjuvant-induced rat inflammatory pain model assessed as inhibition of inflammatory mechanical allodynia at 10 uM, ic administered 30 min before CFA injection and measured after 120 mins by Von Frey filament assay relative to control; format: functional; details: 2.5 h, time 150 min
[1] = molecular target: T1, Mitogen-activated protein kinase 14 (Homo sapiens, UniProt Q16539); test: Inhibition of p38 alpha (unknown origin) assessed as residual activity at 1 uM relative to control
T1 sequence (Q16539 whole entry): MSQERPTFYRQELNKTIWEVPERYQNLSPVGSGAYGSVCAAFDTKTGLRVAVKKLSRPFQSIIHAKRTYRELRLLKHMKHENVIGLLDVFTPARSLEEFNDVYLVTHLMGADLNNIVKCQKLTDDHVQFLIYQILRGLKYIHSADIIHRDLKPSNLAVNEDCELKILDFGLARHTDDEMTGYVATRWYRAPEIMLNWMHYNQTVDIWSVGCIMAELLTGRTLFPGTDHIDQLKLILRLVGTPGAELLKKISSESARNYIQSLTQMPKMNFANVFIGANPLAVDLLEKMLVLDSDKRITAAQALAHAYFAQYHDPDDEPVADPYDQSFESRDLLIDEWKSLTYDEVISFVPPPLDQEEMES

[2] = molecular target: T1, Mitogen-activated protein kinase 14; test: Inhibition of p38 alpha (unknown origin)
[3] = molecular target: T1, Mitogen-activated protein kinase 14; test: Inhibition of p38 alpha (unknown origin) at 1 uM relative to control

SMILES: O=c1[nH]cc(Nc2ccc([N+](=O)[O-])cc2)cc1-c1cccc2[nH]ccc12
- inhibition in vivo at 10 µM (Rattus norvegicus): 98%
- Activity [1]: 93%

SMILES: O=c1[nH]cc(Nc2cccc(F)c2)cc1-c1cccc2[nH]ccc12
- inhibition in vivo at 10 µM (Rattus norvegicus): > 80%
- Activity [1]: 47%
- IC50 [2]: 1400 nM

SMILES: O=c1[nH]cc(Nc2cccc(O)c2)cc1-c1cccc2[nH]ccc12
- Activity [1]: 34%
- IC50 [2]: 1000 nM

SMILES: O=c1[nH]cc(Nc2ccccc2)cc1-c1cccc2[nH]ccc12
- Activity [1]: 59%

SMILES: O=c1[nH]cc(Nc2ccccc2)cc1-c1ccccc1Br
- inhibition in vivo at 10 µM (Rattus norvegicus): 65%
- Activity [1]: 59%
- inhibition [3]: 41%

SMILES: CCOC(=O)c1ccccc1Nc1c[nH]c(=O)c(-c2cccc3[nH]ccc23)c1
- Activity [1]: 104%

SMILES: O=c1[nH]cc(Nc2ccccc2[N+](=O)[O-])cc1-c1cccc2[nH]ccc12
- inhibition in vivo at 10 µM (Rattus norvegicus): > 80%
- Activity [1]: 92.3%

SMILES: O=c1[nH]cc(Nc2ccc(F)cc2)cc1-c1cccc2[nH]ccc12
- inhibition in vivo at 10 µM (Rattus norvegicus): > 80%
- Activity [1]: 39%
- IC50 [2]: 400 nM

SMILES: Cc1ccccc1Nc1c[nH]c(=O)c(-c2cccc3[nH]ccc23)c1
- inhibition in vivo at 10 µM (Rattus norvegicus): > 80%
- Activity [1]: 33%
- IC50 [2]: 1100 nM

SMILES: COc1cccc(Nc2c[nH]c(=O)c(-c3cccc4[nH]ccc34)c2)c1
- inhibition in vivo at 10 µM (Rattus norvegicus): > 80%
- Activity [1]: 50%

SMILES: O=c1[nH]cc(Nc2cccnc2)cc1-c1cccc2[nH]ccc12
- Activity [1]: 64%

SMILES: CCOC(=O)c1ccc(Nc2c[nH]c(=O)c(-c3cccc4[nH]ccc34)c2)cc1
- Activity [1]: 86%

SMILES: COc1ccc(Nc2c[nH]c(=O)c(-c3cccc4[nH]ccc34)c2)cc1
- inhibition in vivo at 10 µM (Rattus norvegicus): 16%
- Activity [1]: 59%

SMILES: CCOC(=O)c1cccc(Nc2c[nH]c(=O)c(-c3cccc4[nH]ccc34)c2)c1
- inhibition in vivo at 10 µM (Rattus norvegicus): > 80%
- Activity [1]: 81%

SMILES: O=c1[nH]cc(Nc2ccccc2F)cc1-c1cccc2[nH]ccc12
- Activity [1]: 28%
- inhibition [3]: 72%

SMILES: O=c1[nH]cc(Nc2ccccn2)cc1-c1cccc2[nH]ccc12
- inhibition in vivo at 10 µM (Rattus norvegicus): > 80%
- Activity [1]: 70%

SMILES: O=c1[nH]cc(Nc2cccc([N+](=O)[O-])c2)cc1-c1cccc2[nH]ccc12
- Activity [1]: 73.9%

SMILES: O=c1[nH]cc(Nc2ccc(Br)cc2)cc1-c1cccc2[nH]ccc12
- Activity [1]: 43%
- IC50 [2]: 2400 nM

SMILES: O=c1[nH]cc(Nc2ccncc2)cc1-c1cccc2[nH]ccc12
- inhibition in vivo at 10 µM (Rattus norvegicus): 100%
- Activity [1]: 67%
- inhibition [3]: 33%

SMILES: O=c1[nH]cc(Nc2cccc(Br)c2)cc1-c1cccc2[nH]ccc12
- Activity [1]: 31%
- IC50 [2]: 700 nM

SMILES: COc1ccccc1Nc1c[nH]c(=O)c(-c2cccc3[nH]ccc23)c1
- inhibition in vivo at 10 µM (Rattus norvegicus): > 80%
- Activity [1]: 50%

SMILES: O=c1[nH]cc(Nc2ccccc2Br)cc1-c1cccc2[nH]ccc12
- Activity [1]: 45%

Reference: ChEMBL document CHEMBL4842355, “Improved potency of pyridin-2(1H)one derivatives for the treatment of mechanical allodynia” (Eur J Med Chem, 2021)
